Laboratory results taken from patent US12516053B2, “Bcl-2 inhibitors” (BEIGENE, LTD., priority 2019, dated 2026).
Where two headings read alike, the source gives them in different places.

What was measured:
[1] = target: BA/F3-BCL-2 G101V cells (Homo sapiens, UniProt P10415, G101V, cells depend on it); assay: BA/F3 cell proliferation assay, Bcl-2 G101V; type: cell-based, Murine; conditions: 24 hrs treatment, 3% FBS, CellTiter-Glo, geometric mean of 3 experiments; read-out: Cellular proliferation assay (IC50, nM) Bcl-2 G101V; BaF3 cell
Experimental: (§1) BA/F3 cell Proliferation Assay:
(§2) The cells were treated with a 10-point dilution series of compounds for 24 hrs. After the compound treatment, 30 μl of CellTiter-Glo reagent was added in each well. The effects on proliferation were determined using Cell TiterGlo reagent (Promega) according to the manufacturer's instructions. Luminescent signals were measured using PHERAstar FS plate reader (BMG Labtech). ICS50 values for cell viability were determined with GraphPad Prism software and were the geometric mean of 3 independent experiments.

[2] = target: recombinant human Bcl-2-G101V protein (Homo sapiens, UniProt P10415, G101V); assay: Bcl-2-G101V TR-FRET assay; type: binding; conditions: TR-FRET, 0.1 nM Bcl-2-G101V, FITC labeled Bak peptide 5 nM; read-out: Biochemical assay (IC50, nM) Bcl-2 G101V
Text: The IC50 for each compound was derived from fitting the data to the four-parameter logistic equation by Graphpad Prism software or Dotmatics.

[3] = test system: RS4;11 (BCL-2 dependent acute lymphoblastic leukemia cell line); assay: RS4;11 cell proliferation assay; type: cell-based; conditions: CellTiter-GLO, read-out: Cellular proliferation assay (IC50, nM) RS4
Experimental: RS4;11 Cell Proliferation Assay:
Each compound was serially diluted with 1 μM as the maximum concentration. To test the apoptotic effect of the compounds, the cells were seeded at 50,000 in 180 μl per well in 96-well plates and treated with 10-point dilution series of each compound for 48 hrs at 37° C. Cell viability was assessed after the treatment using CellTiter-GLO luminescent assay (Promega) according to the manufacturer's recommendations. Briefly, 30 μl of CellTiter-GLO reagent was added into 200 μl of cell culture, Mixture was agitated on an orbital shaker for 5 mins to ensure cell lysis followed by 7 mins incubation at room temperature to allow development and stabilization of luminescent signals, which corresponded to quantity of ATP and thus the quantity of metabolically active cells. Luminescent signals were measured using PHERAstar FS reader (BMG). Mean IC50 values for cell viability were determined with GraphPad Prism software.

[4] = test system: Molt-4 (Bcl-xL-dependent ALL cell line); assay: Molt-4 cell proliferation assay; type: cell-based; conditions: CellTiter-GLO, read-out: Cellular proliferation assay (IC50, nM) Molt-4
Text: Molt-4 Cell Proliferation Assay:
Each compound was serially diluted with 10 1M as the maximum concentration. The anti-proliferative IC50s of these compounds were similarly determined as a percentage of viable cells upon treatment compared to the untreated control using CellTiter-GLO luminescent assay.

[5] = target: Recombinant human Bcl-2 protein (Homo sapiens, UniProt P10415); assay: Bcl-2 TR-FRET assay; type: binding; conditions: TR-FRET, 0.05 nM Bcl-2, FITC labeled Bak peptide 0.5 nM; read-out: Biochemical assay (IC50, nM) Bcl-2 WT
Experimental: Compounds disclosed herein were tested for blocking of Bcl-2 protein with its ligand in an assay based on Time-Resolved Fluorescence Resonance Energy Transfer (TR-FRET) methodology. Recombinant human 0.05 nM Bcl-2 protein was pre-incubated with a serial dilution of compounds disclosed herein (top final concentration is 1 uM or 0.1 uM or 0.02 uM or 0.01 uM, 10 points) at room temperature for 0.5 hour in an assay buffer containing 20 mM potassium phosphate buffer, pH 7.5, 50 mM NaCl, 1 mM EDTA, 0.05% Tween-20, 0.01% BSA. […] The inhibition percentage of Bcl-2 interaction with its ligand in presence of increasing concentrations of compounds was calculated based on the TR-FRET signals. The IC50 for each compound was derived from fitting the data to the four-parameter logistic equation by Graphpad Prism software or Dotmatics.

[6] = target: BA/F3-BCL-2 cells (Homo sapiens, UniProt P10415); assay: BA/F3 cell proliferation assay, BCL-2 wild type; type: cell-based, Murine; conditions: 24 hrs treatment, 3% FBS, CellTiter-Glo, geometric mean of 3 experiments; read-out: Cellular proliferation assay (IC50, nM) Bcl-2 WT; BaF3 cell
Experimental: as §1, §2

[7] = Homo sapiens, RS4-11, 48 hrs treatment

GI50 [1] | IC50 [2] | IC50 ([3]; 48 hrs treatment) | IC50 [4] | IC50 [5] | IC50 [6] | IC50 [3, 7] | IC50 ([4]; Homo sapiens, MOLT-4) | Compound
10.8 nM | 0.94 nM | 1.1 nM | 4540 nM | 0.063 nM | 1.1 nM | – | – | 2-(2,3-dihydropyrrolo[3′,2′:56]pyrido[2,3-b][1,4]oxazin-1(6H)-yl)-N-((4-((((1r,4r)-4-hydroxy-4-methylcyclohexyl)methyl)amino)-3-nitrophenyl)sulfonyl)-4-(2-((S)-2-(2-isopropylphenyl)pyrrolidin-1-yl)-7-azaspiro[3,5]nonan-7-yl)benzamide [Example B3]
– | 5.2 nM | – | – | 0.14 nM | – | 8 nM | > 10000 nM | CC(C)c1ccccc1[C@@H]1CCCN1C1CC2(C1)CN(c1ccc(C(=O)NS(=O)(=O)c3ccc(NC[C@H]4COCCO4)c([N+](=O)[O-])c3)c(N3CCCOc4nc5[nH]ccc5cc43)c1)C2 [Example B15, N-((4-((((S)-1,4-dioxan-2-yl)methyl)amino)-3-nitrophenyl)sulfonyl)-2-(3,4-dihydro-2H-pyrrolo[3′,2′:5,6]pyrido[2,3-b][1,4]oxazepin-1(7H)-yl)-4-(6-((S)-2-(2-isopropylphenyl)pyrrolidin-1-yl)-2-azaspiro[3,3]heptan-2-yl)benzamide]
– | 1.6 nM | – | – | 0.04 nM | – | 1 nM | > 10000 nM | CC(C)c1ccccc1[C@@H]1CCCN1C1CC2(CCN(c3ccc(C(=O)NS(=O)(=O)c4ccc(NC[C@H]5CC[C@](C)(O)CC5)c([N+](=O)[O-])c4)c(N4c5cc6cc[nH]c6nc5OCC4C)c3)CC2)C1 (stereo partly drawn) [Example B10, N-((4-((((1R,4R)-4-hydroxy-4-methylcyclohexyl)methyl)amino)-3-nitrophenyl)sulfonyl)-4-(2-((S)-2-(2-isopropylphenyl)pyrrolidin-1-yl)-7-azaspiro[3,5]nonan-7-yl)-2-(2-methyl-2,3-dihydropyrrolo[3′2′:5,6]pyrido[2,3-b][1,4]oxazin-1(6H)-yl)benzamide]
7.8 nM | 1.8 nM | – | – | 0.05 nM | 0.82 nM | 1.7 nM | 5560 nM | CC(C)c1ccccc1[C@@H]1CCCN1C1CC2(CCN(c3ccc(C(=O)NS(=O)(=O)c4ccc(NCC5(F)CCOCC5)c([N+](=O)[O-])c4)c(N4CCCOc5nc6[nH]ccc6cc54)c3)CC2)C1 [Example B2, (S)-2-(3,4-dihydro-2H-pyrrolo[3′,2′:5,6]pyrido[2,3-b][1,4]oxazepin-1(7H)-yl)-N-((4-(((4-fluorotetrahydro-2H-pyran-4-yl)methyl)amino)-3-nitrophenyl)sulfonyl)-4-(2-(2-(2-isopropylphenyl)pyrrolidin 1-yl)-7-azaspiro[3,5]nonan-7-yl)benzamide]
39.1 nM | 2.4 nM | – | – | 0.094 nM | 2.8 nM | 5.5 nM | > 10000 nM | CC(C)c1ccccc1[C@@H]1CCCN1C1CC2(C1)CN(c1ccc(C(=O)NS(=O)(=O)c3ccc(NC[C@H]4CC[C@](C)(O)CC4)c([N+](=O)[O-])c3)c(N3CCCOc4nc5[nH]ccc5cc43)c1)C2 [Example B13, 2-(3,4-dihydro-2H-pyrrolo[3′,2′:5,6]pyrido[2,3-b][1,4]oxazepin-1(7H)-yl)-N-((4-((((1r,4r)-4-hydroxy-4-methylcyclohexyl)methyl)amino)-3-nitrophenyl)sulfonyl)-4-(6-((S)-2-(2-isopropylphenyl)pyrrolidin-1-yl)-2-azaspiro[3,3]heptan-2-yl)benzamide]
– | 3.7 nM | – | – | 0.058 nM | – | 3.6 nM | 7310 nM | CC(C)c1ccccc1[C@@H]1CCCN1C1CC2(C1)CN(c1ccc(C(=O)NS(=O)(=O)c3ccc(NCC4(F)CCOCC4)c([N+](=O)[O-])c3)c(N3CCOc4nc5[nH]ccc5cc43)c1)C2 [Example B12, (S)-2-(2,3-dihydropyrrolo[3′,2′:5,6]pyrido[2,3-b][1,4]oxazin-1(6H)-yl)-N-((4-(((4-fluorotetrahydro-2H-pyran-4-yl)methyl)amino)-3-nitrophenyl)sulfonyl)-4-(6-(2-(2-isopropylphenyl)pyrrolidin-1-yl)-2-azaspiro[3.3]heptan-2-yl)benzamide]
26.5 nM | 3.1 nM | – | – | 0.11 nM | 2.4 nM | 4.8 nM | > 10000 nM | CC(C)c1ccccc1[C@@H]1CCCN1C1CC2(C1)CN(c1ccc(C(=O)NS(=O)(=O)c3ccc(NCC4(F)CCOCC4)c([N+](=O)[O-])c3)c(N3CCCOc4nc5[nH]ccc5cc43)c1)C2 [Example B14, (S)-2-(3,4-dihydro-2H-pyrrolo[3′,2′:5,6]pyrido[2,3-b][1,4]oxazepin-1(7H)-yl)-N-((4-(((4-fluorotetrahydro-2H-pyran-4-yl)methyl)amino)-3-nitrophenyl)sulfonyl)-4-(6-(2-(2-isopropylphenyl)pyrrolidin-1-yl)-2-azaspiro[3.3]heptan-2-yl)benzamide]
9.8 nM | 0.86 nM | – | – | 0.025 nM | 0.3 nM | 0.47 nM | > 10000 nM | CC(C)c1ccccc1[C@@H]1CCCN1C1CC2(CCN(c3ccc(C(=O)NS(=O)(=O)c4cc5c(c([N+](=O)[O-])c4)N[C@H](C[C@H]4CC[C@H](O)CC4)CO5)c(Oc4cnc5[nH]ccc5c4)c3)CC2)C1 [Example A4, 2-((1H-pyrrolo[2,3-b]pyridin-5-yl)oxy)-N—(((R)-3-(((1R,4R)-4-hydroxycyclohexyl)methyl)-5-nitro-3,4-dihydro-2H-benzo[b][1,4]oxazin-7-yl)sulfonyl)-4-(2-((S)-2-(2-isopropylphenyl)pyrrolidin-1-yl)7-azaspiro[3,5]nonan-7-yl)benzamide]
7.5 nM | 0.83 nM | – | – | 0.024 nM | 0.41 nM | 1 nM | 5160 nM | CC(C)c1ccccc1[C@@H]1CCCN1C1CC2(CCN(c3ccc(C(=O)NS(=O)(=O)c4cc5c(c([N+](=O)[O-])c4)N[C@H](C[C@H]4CC[C@@H](O)CC4)CO5)c(Oc4cnc5[nH]ccc5c4)c3)CC2)C1 [Example A5, 2-((1H-pyrrolo[2,3-b]pyridin-5-yl)oxy)-N—(((R)-3-(((1s,4S)-4-hydroxycyclohexyl)methyl)-5-nitro-3,4-dihydro-2H-benzo[b][1,4]oxazin-7-yl)sulfonyl)-4-(2-((S)-2-(2-isopropylphenyl)pyrrolidin-1-yl)-7-azaspiro[3,5]nonan-7-yl)benzamide]
15.5 nM | 1.9 nM | – | – | 0.04 nM | 1 nM | 1.7 nM | 6730 nM | CC(C)c1ccccc1[C@@H]1CCCN1C1CC2(CCN(c3ccc(C(=O)NS(=O)(=O)c4ccc(NC[C@H]5CC[C@](C)(O)CC5)c([N+](=O)[O-])c4)c(N4CCCOc5nc6[nH]ccc6cc54)c3)CC2)C1 [Example B1]
